pEC50, pIC50: −log10 of the molar value. Starred links: 1 amine or outer side, 2 acyl side, 3 side chain; linkers in the order of their positions; H or OH if unused. Positions of bridges follow the written chain, without caps; N, C: chain ends. Non-standard residues stand in square brackets, D forms with d. Residues, ends and D or L forms follow the SMILES beside them. Adda = CO[C@@H](Cc1ccccc1)[C@@H](C)/C=C(C)/C=C/[C@H](N[*:1])[C@H](C)C(=O)[*:2]; dAsp(3S-Me) = C[C@H](C(=O)[*:3])[C@@H](N[*:1])C(=O)[*:2]; d(γGlu) = O=C(O)[C@@H](CCC(=O)[*:2])N[*:1]; NMeDha = C=C(NC)C(=O)O
Legend:
NCI-H358 = assay: Anticancer activity against human NCI-H358 cells; type: functional
[1] = target: T1, Serine/threonine-protein phosphatase 5 (Homo sapiens, UniProt P53041); assay: Activation of recombinant human PP5 (16 to 499 residues) Escherichia coli BL21 (DE3) using pNPP incubated for 60 mins
T1 sequence (P53041 whole entry): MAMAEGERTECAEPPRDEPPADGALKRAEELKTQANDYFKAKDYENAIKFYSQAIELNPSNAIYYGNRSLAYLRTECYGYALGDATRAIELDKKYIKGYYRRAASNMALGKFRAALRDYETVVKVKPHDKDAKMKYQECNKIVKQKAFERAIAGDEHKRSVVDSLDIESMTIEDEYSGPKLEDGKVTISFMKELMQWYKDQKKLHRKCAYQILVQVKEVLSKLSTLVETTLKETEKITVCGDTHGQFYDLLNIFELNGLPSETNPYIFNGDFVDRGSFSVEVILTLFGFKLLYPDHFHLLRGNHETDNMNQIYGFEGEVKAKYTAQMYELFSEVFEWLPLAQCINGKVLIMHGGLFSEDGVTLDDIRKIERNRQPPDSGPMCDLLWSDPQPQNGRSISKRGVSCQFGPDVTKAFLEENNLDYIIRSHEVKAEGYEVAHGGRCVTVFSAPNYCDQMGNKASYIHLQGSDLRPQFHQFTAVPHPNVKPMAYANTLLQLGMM

[2] = Inhibition of PP3 (unknown origin) using [3H]-phosphohistone as substrate by liquid scintillation counting analysis; design: species or system Homo sapiens
[3] = target: T1, Serine/threonine-protein phosphatase 5; assay: Inhibition of PP5 (unknown origin) using [3H]-phosphohistone as substrate by liquid scintillation counting analysis
[4] = Inhibition of PP1 (unknown origin) using [3H]-phosphohistone as substrate by liquid scintillation counting analysis; design: species or system Homo sapiens
[5] = Inhibition of PP4 (unknown origin) using [3H]-phosphohistone as substrate by liquid scintillation counting analysis; design: species or system Homo sapiens
[6] = Inhibition of porcine PP4 using [33P]-labelled substrate; design: species or system Sus scrofa
[7] = Inhibition of PP1 (unknown origin); design: species or system Homo sapiens
[8] = target: T2, Serine/threonine-protein phosphatase 2A catalytic subunit alpha isoform (Homo sapiens, UniProt P67775); assay: Inhibition of PP2A (unknown origin)
T2 sequence (P67775 whole entry, canonical isoform): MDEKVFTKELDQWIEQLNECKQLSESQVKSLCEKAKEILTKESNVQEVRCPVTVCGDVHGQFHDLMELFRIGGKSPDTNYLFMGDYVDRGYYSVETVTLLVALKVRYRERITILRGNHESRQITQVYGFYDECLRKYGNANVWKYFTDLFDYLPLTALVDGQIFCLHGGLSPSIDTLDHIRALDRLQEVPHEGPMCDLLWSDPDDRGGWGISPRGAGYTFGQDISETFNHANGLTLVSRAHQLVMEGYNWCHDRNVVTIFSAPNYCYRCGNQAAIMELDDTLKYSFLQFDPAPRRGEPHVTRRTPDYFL

[9] = Inhibition of PP3 (unknown origin); design: species or system Homo sapiens
[10] = target: T1, Serine/threonine-protein phosphatase 5; assay: Inhibition of PP5 (unknown origin)
[11] = target: T3, Serine/threonine-protein phosphatase 6 catalytic subunit (Homo sapiens, UniProt O00743); assay: Inhibition of PP6 (unknown origin)
T3 sequence (O00743 whole entry): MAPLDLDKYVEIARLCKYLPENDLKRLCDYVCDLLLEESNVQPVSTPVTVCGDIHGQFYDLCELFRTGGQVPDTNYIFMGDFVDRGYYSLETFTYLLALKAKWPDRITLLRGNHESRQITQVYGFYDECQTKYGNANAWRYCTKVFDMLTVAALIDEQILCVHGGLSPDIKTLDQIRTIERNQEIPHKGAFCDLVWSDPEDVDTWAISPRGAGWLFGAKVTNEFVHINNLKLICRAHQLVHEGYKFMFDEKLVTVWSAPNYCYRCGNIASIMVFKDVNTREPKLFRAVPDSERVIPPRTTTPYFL

[12] = target: T1, Serine/threonine-protein phosphatase 5; assay: Inhibition of human PP5 using [3H]-phosphohistone as substrate
[13] = target: T2, Serine/threonine-protein phosphatase 2A catalytic subunit alpha isoform; assay: Inhibition of human PP2AC using [3H]-phosphohistone as substrate
[14] = Inhibition of PP2A (unknown origin) using [3H]-phosphohistone as substrate by liquid scintillation counting analysis; design: species or system Homo sapiens
[15] = target: T3, Serine/threonine-protein phosphatase 6 catalytic subunit; assay: Inhibition of PP6 (unknown origin) using [3H]-phosphohistone as substrate by liquid scintillation counting analysis
[16] = Inhibition of rabbit skeletal muscle PP1 using [3H]-phosphohistone as substrate; design: species or system Oryctolagus cuniculus
[17] = Inhibition of rabbit skeletal muscle PP2A using [3H]-phosphohistone as substrate; design: species or system Oryctolagus cuniculus
[18] = Inhibition of porcine testis PP4; design: species or system Sus scrofa
[19] = Inhibition of PP7 (unknown origin); design: species or system Homo sapiens
[20] = target: T4, Serine/threonine-protein phosphatase 5 (Homo sapiens) (UniProt P53041); assay: Inhibition of human full length PP5 expressed in Escherichia coli Rosetta gami2(DE3)pLysS at >1 x 10^6nM relative to control; conditions: dose > 1.0 10^6nM
T4 sequence (whole entry): T1 sequence (P53041 whole entry)

[21] = target: T4, Serine/threonine-protein phosphatase 5 (Homo sapiens); assay: Activation of PP5 (unknown origin) assessed as fold increase in activity at > 100000 nM relative to control; conditions: filed as activator
[22] = Inhibition of PP3 activity in human Jurkat J77 cells assessed as dephosphorylation of substrate; type: cell-based
[23] = Inhibition of PP7 (unknown origin) using [3H]-phosphohistone as substrate by liquid scintillation counting analysis; design: species or system Homo sapiens
[24] = Inhibition of PP4 (unknown origin); design: species or system Homo sapiens
Homo sapiens = species: Homo sapiens; assay: Activation of PP2A (unknown origin) at 1000 nM relative to control; conditions: filed as activator

O=S(=O)(N[C@@H]1CCC[C@H](N2c3ccccc3Oc3ccccc32)[C@H]1O)c1ccc(OC(F)(F)F)cc1
GI50 (NCI-H358): 5 10^3nM

O=C(O)CCCCCCCCCCCC[C@@H]1C=CCC1 [CHAULMOOGRIC ACID]
pEC50 [1]: 3.89

C=C/C(=C/C(=O)C[C@H](C)C[C@@H](C)CC[C@H](O)[C@H](C)C(=O)C[C@@H](O)[C@@H](C)[C@@H](C)OC(=O)C[C@@H](O)C1=C(C)C(=O)OC1=O)CC
pIC50 [2]: 4.76
pIC50 [3]: 7.92
pIC50 [4]: 9.40
pIC50 [5]: 7.35

C[C@@]12C(=O)OC(=O)[C@]1(C)[C@H]1CC[C@@H]2O1 [CANTHARIDIN]
pIC50 [6]: 7.30
pIC50 [7]: 5.77
pIC50 [8]: 6.80
pIC50 [9]: < 3.30
pIC50 [10]: 6.22
pIC50 [11]: 5.10
pIC50 [12]: 6.40

COC[C@@H]([C@H](O)[C@H](O)C(=O)NCC[C@H](C)c1nc(/C=C/C[C@@H]2O[C@]3(C[C@@H](O)[C@@H]2C)O[C@H]([C@H](C[C@H](O)[C@H](C)[C@H](O)[C@H](C)/C=C(C)/C(C)=C/C=C/C(C)=C\C#N)OC)[C@H](OP(=O)(O)O)C3(C)C)co1)N(C)C [CALYCULIN A]
pIC50 [13]: 9.60
pIC50 [12]: 8.52
pIC50 [2]: < 6.00
pIC50 [14]: 8.82
pIC50 [5]: 9.70
pIC50 [15]: 8.00

C=C1[C@@H](O)[C@@H]2O[C@]3(CC[C@H](/C=C/[C@H](C)[C@@H]4CC(C)=C[C@@]5(OC(C[C@@](C)(O)C(=O)O)CC[C@H]5O)O4)O3)CC[C@H]2O[C@@H]1[C@@H](O)C[C@H](C)[C@H]1O[C@@]2(CCCCO2)CC[C@H]1C (some centres undefined)
pIC50 [10]: 8.46
pIC50 [11]: 9.00
pIC50 [16]: 9.64
pIC50 [17]: 9.03
pIC50 [18]: 10.00
pIC50 [19]: < 6.00

C=C1C(=O)N[C@H](C)C(=O)N[C@@H](CC(C)C)C(=O)N[C@@H](C(=O)O)[C@H](C)C(=O)N[C@@H](CCCNC(=N)N)C(=O)N[C@@H](/C=C/C(C)=C/[C@H](C)[C@H](Cc2ccccc2)OC)[C@H](C)C(=O)N[C@@H](C(=O)O)CCC(=O)N1C [MICROCYSTIN-LR] (R[Adda][d(γGlu)][NMeDha][dA]L[dAsp(3S-Me)]-OH; lactam N-7)
pIC50 [9]: 6.70
pIC50 [10]: 9.00
pIC50 [16]: 8.00
pIC50 [17]: 10.00
pIC50 [18]: 9.82

Nc1ccc(-c2nc3ccc(-c4nc5ccc(N)cc5[nH]4)cc3[nH]2)cc1
inhibition [20]: 40%

COc1ccc(-c2nc(Cc3ccc(Cl)cc3)no2)cc1OC
fold change (FC) [21]: 4

CCCCC/C=C\C/C=C\C/C=C\C/C=C\CCCC(=O)O [ARACHIDONIC ACID]
pEC50 [1]: 4.11

C[C@@](O)(/C=C/[C@H]1CC=CC(=O)O1)[C@@H](C[C@@H](O)\C=C/C=C\C=C\CO)OP(=O)(O)O [FOSTRIECIN]
pIC50 [2]: < 4.00
pIC50 [3]: < 5.00
pIC50 [5]: 8.52

CN1CCN(C(=O)C2C(C(=O)O)C3CC[C@@H]2O3)CC1 (single isomer, unassigned)
pIC50 [7]: 8.62
pIC50 [13]: 6.40

C=CC[C@@H]1/C=C(\C)C[C@H](C)C[C@H](OC)[C@H]2O[C@@](O)(C(=O)C(=O)N3CCCC[C@H]3C(=O)O[C@H](/C(C)=C/[C@@H]3CC[C@@H](O)[C@H](OC)C3)[C@H](C)[C@@H](O)CC1=O)[C@H](C)C[C@@H]2OC [TACROLIMUS ANHYDROUS]
pIC50 [22]: 9.40

C/C=C1/C(=O)N[C@H](OC(=O)O)[C@H](C)C(=O)N[C@@H](CCCNC(=N)N)C(=O)N[C@@H](/C=C/C(C)=C/[C@H](C)[C@H](Cc2ccccc2)OC)[C@H](C)C(=O)N[C@H](OC(=O)O)CCC(=O)N1C
pIC50 [2]: < 6.00
pIC50 [23]: < 6.00
pIC50 [4]: 8.77
pIC50 [14]: 10.40

CO[C@H]([C@H](O)CC(=O)[C@@H](C)[C@@H](O)CC[C@@H](C)[C@@H]1O[C@]2(CC[C@@H](C)[C@H](CC[C@H](C)C(C)=O)O2)CC[C@@H]1C)[C@H](OC(=O)C[C@@H](O)C1=C(C)C(=O)OC1=O)C(C)C [TAUTOMYCIN]
pIC50 [9]: < 6.00
pIC50 [10]: 8.00
pIC50 [14]: 8.28
pIC50 [16]: 10.42
pIC50 [24]: 9.40

CCCCCCCCc1ccc(CCC(N)(CO)CO)cc1
Activity (Homo sapiens): 175%

From ChEMBL document CHEMBL5226315, “Strategies for Targeting Serine/Threonine Protein Phosphatases with Small Molecules in Cancer” (J Med Chem, 2021)
